{"source": "patent US10450378B2", "about": "“Cytotoxic and anti-mitotic compounds, and methods of using the same” (priority 2014, dated 2019)", "key": {"HCC1954 cell line": {"tested_on": "HCC1954 cell line", "assay": "Cytotoxicity of compounds of Formula I, Example 3 (CellTiter-Glo)", "format": "cell-based", "conditions": "Homo sapiens, 72 h, 3 days incubation", "experimental": "(§1) Compounds were tested on Jurkat and HCC1954 cell lines to assess their cytotoxicity. Compounds were titrated 1:3 starting at various concentrations (30 nM to 1000 nM). Control cytotoxin HTI-286 (see, e.g., U.S. Pat. No. 7,579,323) was also titrated 1:3 across starting with a 30 nM concentration. Plates were incubated for 3 days. Cell viability was quantified using 30 μL/well of 1× CellTiter-Glo reagent.\n(§2) Each cell line was grown in its respective growth medium until seeding day. Cells were removed from their culture vessels and the resulting cell suspension was counted using the ViCell. Cells were then diluted in their growth medium to 25000/mL such that 100 μL/well=2500 cells/well. Each cell line was seeded in the inner 60 wells of 96-well black walled TC plates, outer wells filled with water. HCC1954 were seeded a day prior to assay set up. Cytotoxins were diluted as described below a 5× dose-response of each compound was prepared using RPMI+10% FBS in a deep-well 96-well plate. This “master” dilution plate was used for each cell line. 25 μL of the 5× dose responses was spiked into each cell line in triplicate. The plates were returned to the incubator and were incubated for 3 nights. After the 3 nights, cell viability was quantified using 30 μL/well of 1× CellTiter-glo reagent. After at least 10 minutes of incubation, the luminescence was measured using the SpectraMax (500 ms integration)."}, "Jurkat cells": {"tested_on": "Jurkat cells", "assay": "Cell cycle arrest assay", "format": "cell-based, Human", "conditions": "50 nM, 24 h, propidium iodide", "experimental": "Jurkat cells (ATCC), cultured in RMPI-1640 media supplemented with 10% FBS, were obtained in logarithmic growth. 1 million cells/ml were seeded into a 12-well tissue-culture treated plate in a 950 μL, volume. Cells were treated with Compound 5 in 50 μL of growth media such that the final concentration of Compound 5 was 50 nM, control cells were given 50 μL of growth media alone. Cells were incubated for 24 h at 37° C., 5% CO2 in a humidified incubator. Following incubation, cells were thoroughly resuspended and transferred to 5 mL FACS tubes, and stored on ice. Two washes were performed by spinning cells down in a swinging-bucket centrifuge at 450×g for 4 min, resuspending in 1 mL ice-cold PBS. Cells were fixed through the addition of 3 mL ice-cold 100% ethanol in a dropwise fashion under vortex, and immediately stored at 4° C. for 1 h. During the 1 h incubation, the following staining solution was prepared in ice-cold PBS: 10 μg/ml propidium iodide, 10 U/ml RNAse 1f, and 0.05% Triton X-100. Following the 1 h fixation incubation, ethanol was removed by spinning cells as described above, and washing twice in 1 mL ice-cold PBS. Cells were resuspended in 500 μL of the above-mentioned staining solution, and incubated at room temperature for 1 h. […] Histograms were generated using FCS Express, plotting # of events against fluorescence in FL-3."}, "Jurkat cell line": {"tested_on": "Jurkat cell line", "assay": "Cytotoxicity of compounds of Formula I, Example 3 (CellTiter-Glo)", "format": "cell-based, Human", "conditions": "Homo sapiens, 72 h, 3 days incubation, CellTiter-Glo, read-out: EC50", "experimental": "as §1, §2"}, "[1]": {"tested_on": "Human gastric carcinoma cell line NCI-N87", "assay": "Cellular cytotoxicity of compounds of Formula I, Example 3.1", "format": "cell-based", "conditions": "five nights, CellTiter-Glo", "experimental": "(§3) Compounds were tested on one or more of Human T-cell leukemia cell line Jurkat (ATCC: TIB-152); Human breast cancer cell lines HCC1954 (ATCC: CRL-2338) and JIMT-1 (DSMZ: ACC 589); Human Pancreatic cell line BxPC-3 (ATCC: CRL.1687), Human ovarian adenocarcinoma cell line SK-OV-3 (ATCC: HTB-77) and Human gastric carcinoma cell line NCI-N87 (ATCC: CRL. 5822); to assess their cytotoxicity.\n(§4) Briefly, cells were obtained from commercial sources and cultured as described in the product sheet provided. Cells were removed from their culture vessels and the resulting cell suspension was counted using a ViCell (Beckman Coulter), then seeded at 25,000 cells/mL (2,500 cells/well) in Costar 3904 black walled, flat bottomed 96-well plates (cells were seeded in the inner 60 wells of 96-well TC plates, and outer edge wells filled with water). Adherent cell lines were incubated for one night at 37° C./5% CO2 atmosphere to allow the cells to attach to the microtiter plate surface, while suspension (Jurkat) cells were plated immediately before use. Cytotoxins were dissolved and serially diluted in dimethyl sulfoxide and then the solutions were added to complete growth medium at five-times the desired maximum final concentration. The cytotoxins were then titrated in growth medium, normally 1:3, over eight steps. A control with no test article present (growth medium alone) was included on each microtiter plate in sextuplicate. The prepared toxin titrations were added (25 μL/well) in triplicate to each cell line assayed. The cells and titrations were incubated at 37° C./5% CO2 for three nights (Jurkat) and five nights (all other cell lines). After the incubation, cell viability was measured using CellTiter-Glo® by adding 30 μL of prepared CellTiter-Glo® reagent to each assay well. The mixtures were incubated for at least twenty minutes in the dark prior to measuring emitted luminescence using a microplate luminometer (500 ms integration time). The collected relative luminescence units (RLU) were converted to % cytotoxicity using the growth medium alone control mentioned above (% Cytotoxicity=1-[well RLU/average medium alone control RLU]×100%)."}, "[2]": {"tested_on": "Human T-cell leukemia cell line Jurkat", "assay": "Cellular cytotoxicity of compounds of Formula I, Example 3.1", "format": "cell-based", "conditions": "Homo sapiens; Jurkat; three nights; CellTiter-Glo; read-out: EC50 (nM) Jurkat", "experimental": "as §3, §4"}, "[3]": {"tested_on": "Human breast cancer cell line HCC1954", "assay": "Cellular cytotoxicity of compounds of Formula I, Example 3.1", "format": "cell-based", "conditions": "five nights, CellTiter-Glo, read-out: EC50 (nM) HCC-1954", "experimental": "as §3, §4"}, "[4]": {"tested_on": "Human breast cancer cell line JIMT-1", "assay": "Cellular cytotoxicity of compounds of Formula I, Example 3.1", "format": "cell-based", "conditions": "five nights, CellTiter-Glo", "experimental": "as §3, §4"}, "[5]": {"tested_on": "Human Pancreatic cell line BxPC-3", "assay": "Cellular cytotoxicity of compounds of Formula I, Example 3.1", "format": "cell-based", "conditions": "five nights, CellTiter-Glo", "experimental": "as §3, §4"}, "[6]": {"tested_on": "Human ovarian adenocarcinoma cell line SK-OV-3", "assay": "Cellular cytotoxicity of compounds of Formula I, Example 3.1", "format": "cell-based", "conditions": "five nights, CellTiter-Glo, read-out: EC50 (nM) SKOV-3", "experimental": "as §3, §4"}}, "data": [{"smiles": "CC[C@H](C)[C@@H]([C@@H](CC(=O)N1CCC[C@H]1[C@H](OC)[C@@H](C)C(=O)NS(=O)(=O)c1ccc(N)cc1)OC)N(C)C(=O)[C@@H](NC(=O)[C@H](C(C)C)N(C)C)C(C)C", "note": "[Compound 5, (S)-N-((3R,4S,5S)-1-((S)-2-((1R,2R)-3-(4-Aminophenylsulfonamido)-1-methoxy-2-methyl-3-oxopropyl)pyrrolidin-1-yl)-3-methoxy-5-methyl-1-oxoheptan-4-yl)-2-((S)-2-(dimethylamino)-3-methylbutanamido)-N,3-dimethylbutanamide]", "values": [{"measurement": "EC50", "setting": "HCC1954 cell line", "value": 0.0089, "unit": "µM"}, {"measurement": "Cell cycle phase (DNA content histograms)", "setting": "Jurkat cells", "value": "pronounced shift towards G2/M phase"}, {"measurement": "EC50", "setting": "Jurkat cell line", "value": 0.0168, "unit": "µM"}, {"measurement": "EC50", "setting": "[1]", "value": 12, "unit": "nM"}, {"measurement": "EC50", "setting": "[2]", "value": 13.6, "unit": "nM"}, {"measurement": "EC50", "setting": "[3]", "value": 8.9, "unit": "nM"}, {"measurement": "EC50", "setting": "[4]", "value": 9.3, "unit": "nM"}, {"measurement": "EC50", "setting": "[5]", "value": 18.2, "unit": "nM"}, {"measurement": "EC50", "setting": "[6]", "value": 23.7, "unit": "nM"}]}]}
